Test results from patent US10800741B2 (ANCUREALL PHARMACEUTICAL (SHANGHAI) CO., LTD., priority 2017, dated 2020).

Columns and labels:
Assay type in all cases: cell-based, Human
MOLM-13 (FLT3-ITD) = experiment: In vitro growth inhibition of MOLM-13 tumor cells (MTT/CCK8); details: Homo sapiens, MOLM-13; in vitro growth inhibition (or induction of apoptosis), cells cultured 3 to 5 days, MTT (CCK8); read-out: IC50 MOLM-13 (FLT3-ITD)
From the text: (§1) Tumor cell lines are an effective model for studying in vitro tumor growth inhibition. In the present invention, a representative tumor cell line was selected to determine the cell growth inhibition activity of the present compound. All cell lines used were from ATCC, DSMZ, and cell banks of the Chinese Academy of Sciences. Cell culture conditions and methods were in accordance with the requirements of each cell line. Cells were subcultured in vitro for no more than 3 generations each time, and as required, single-clone purification and identification of cell lines could be carried out.
(§2) The cell culture media used were RPMI1640 (Gibco), DMEM (Gibco), MEM (Gibco), L15 (Gibco), IMDM (Gibco), McCOY'S5A, and William's (Gibco). 5-20% fetal bovine serum (Gibco), 1% double antibiotic, 2 mM glutamine, or 1 mM sodium pyruvate were added. The names, species, major gene characteristics, culture media and cell sources of the cell lines used are shown in table 1, wherein “amp” refers to gene amplification. “+++” refers to gene overexpression. The main genetic characteristics of cells were obtained from the COSMIC Cell Lines Project and related research papers, respectively.
(§3) Adherent cells were digested with 0.25% trypsin-EDTA (Gibco). Suspension culture cells were collected by centrifugation (1700 rpm, 3 minutes). The supernatant was discarded and the cells were counted. According to each cell growth cycle, different concentrations of cells were prepared (5˜10×10^4 cells per ml), and inoculated to 96-well plates (Corning), with 100 μl per well, and incubated overnight at 37° C., 5% CO2. The next day, the test compound was added to the cultured cells (2 wells in parallel). The final concentration of the solvent was less than 1/1,000. The cells were further cultured for 3 to 5 days and assayed by MTT.
(§4) The compound was stored at a concentration of 10 mM at −20° C. and diluted to 2- or 10-fold series prior to use. BGJ398 and AC220 were synthesized according to the methods of WO2006420A1 and US2007232604A1, respectively.
(§5) The adherent cells were taken out from the cell culture medium, and immediately added to a freshly prepared complete medium containing 10% CCK8 (5% FBS), 100 ul per hole. The suspended cells were directly added to a CCK8 reagent until reaching a final concentration of 10% and cultured for 1 to 4 hours.
(§6) T=optical density of drug-treated cell wells−optical density of blank control wells; T0=optical density of cell wells before drug treatment−optical density of blank control wells; C=optical density of solvent control wells−optical density of blank control wells. […] The experiments were repeated 1 to 3 times and a statistical analysis of data was conducted.

H1581 (FGFR1 amp) = experiment: In vitro growth inhibition of H1581 tumor cells (MTT/CCK8); details: Homo sapiens, NCI-H1581; in vitro growth inhibition (or induction of apoptosis), cells cultured 3 to 5 days, MTT (CCK8); read-out: IC50 H1581 (FGFR1 amp)
From the text: as §1, §2, §3, §4, §5, §6

KATO III (FGFR2 amp) = experiment: In vitro growth inhibition of KATO III tumor cells (MTT/CCK8); details: Homo sapiens, KATO III; in vitro growth inhibition (or induction of apoptosis), cells cultured 3 to 5 days, MTT (CCK8); read-out: IC50 KATO III (FGFR2 amp)
From the text: as §1, §2, §3, §4, §5, §6

Compound	IC50 (MOLM-13 (FLT3-ITD)) [nM]	IC50 (H1581 (FGFR1 amp)) [nM]	IC50 (KATO III (FGFR2 amp)) [nM]
COCCOc1cc2nccc(Oc3ccc(NC(=O)Nc4cc(C(C)(C)C)nn4C)c(Cl)c3)c2cc1NC(C)=O [Compound 124, N-[4-{4-[3-(5-tert-butyl-2-methyl-2H-pyrazol-3-yl)-ureido]-3-chloro-phenoxy}-7-(2-methoxy-ethoxy)-quinolin-6-yl]-acetamide]	1.01	4.6	0.31
CC(=O)Nc1cc2c(Oc3ccc(NC(=O)Nc4cc(C(C)(C)C)n[nH]4)c(Cl)c3)ccnc2cc1OCCN1CCOCC1 [Compound 132, N-[4-{4-[3-(5-tert-butyl-2H-pyrazol-3-yl)-ureido]-3-chloro-phenoxy}-7-(2-morpholin-4-yl-ethoxy)-quinolin-6-yl]-acetamide]	0.98	3.91	1.34
COCCOc1cc2nccc(Oc3ccc(NC(=O)Nc4cc(C(C)(C)C)n[nH]4)c(C)c3)c2cc1NC(C)=O [Compound 133, N-[4-{4-[3-(5-tert-butyl-2H-pyrazol-3-yl)-ureido]-3-methyl-phenoxy}-7-(2-methoxy-ethoxy)-quinolin-6-yl]-acetamide]	1.13	8.04	1.56
COCCOc1cc2nccc(Oc3ccc(NC(=O)Nc4cc(C(C)(C)C)nn4C4CC4)cc3)c2cc1NC(C)=O [Compound 118]	0.11	19.3	0.38
COCCOc1cc2nccc(Oc3ccc(NC(=O)Nc4cc(C(C)(C)C)nn4CCN(C)C)c(Cl)c3)c2cc1NC(C)=O [Compound 127, N-[4-{4-[3-(5-tert-butyl-2-dimethylamino-ethyl-2H-pyrazol-3-yl)-ureido]-3-chloro-phenoxy}-7-(2-methoxy-ethoxy)-quinolin-6-yl]-acetamide]	2.56	1.26	0.27
COCCOc1cc2nccc(Oc3ccc(NC(=O)Nc4cc(C(C)(C)C)nn4C)cc3Cl)c2cc1NC(C)=O [Compound 135, N-[4-{4-[3-(5-tert-butyl-2-methyl-2H-pyrazol-3-yl)-ureido]-2-chloro-phenoxy}-7-(2-methoxy-ethoxy)-quinolin-6-yl]-acetamide]	0.11	19.5	0.22
CC(C)(C)c1cc(NC(=O)Nc2ccc(Oc3ccnc4cc(OCCCN5CCOCC5)c(C(N)=O)cc34)cc2Cl)[nH]n1 [Compound 138, 4-{4-[3-(5-tert-butyl-2H-pyrazol-3-yl)-ureido]-3-chloro-phenoxy}-7-(3-morpholin-4-yl-propoxy)-quinolin-6-carboxamide]	21.3	97.3	18.2
COCCOc1cc2nccc(Oc3ccc(NC(=O)Nc4cc(C(C)(C)C)nn4CCN(C)C)cc3)c2cc1NC(C)=O [Compound 119, N-[4-(4-{3-[5-tert-butyl-2-(2-dimethylamino-ethyl)-2H-pyrazol-3-yl]-ureido}-phenoxy)-7-(2-methoxyethoxy)-quinolin-6-yl]-acetamide]	< 0.05	78.9	6.87
COCCOc1cc2nccc(Oc3ccc(NC(=O)Nc4cc(C(C)(C)C)nn4C4CCNCC4)cc3)c2cc1NC(C)=O [Compound 120, N-[4-{4-[3-(5-tert-butyl-2-piperidin-4-yl-2H-pyrazol-3-yl)-ureido]-phenoxy}-7-(2-methoxy-ethoxy)-quinolin-6-yl]-acetamide]	0.55	78.6	13.5
COCCOc1cc2nccc(Oc3ccc(NC(=O)Nc4cc(C(C)(C)C)nn4C4CCN(C)CC4)c(Cl)c3)c2cc1NC(C)=O [Compound 126, N-[4-(4-{3-[5-tert-butyl-2-(1-methyl-piperidin-4-yl)-2H-pyrazol-3-yl]-ureido}-3-chloro-phenoxy)-7-(2-methoxy-ethoxy)-quinolin-6-yl]-acetamide]	7.62	1.41	0.41
COCCOc1cc2nccc(Oc3ccc(NC(=O)Nc4cc(C(C)(C)C)n[nH]4)cc3)c2cc1NC(C)=O [Compound 116, N-[4-{4-[3-(5-tert-butyl-2H-pyrazol-3-yl)-ureido]-phenoxy}-7-(2-methoxy-ethoxy)-quinolin-6-yl]-acetamide]	0.095	9.01	1.97
CN1CCN(CCCOc2cc3nccc(Oc4ccc(NC(=O)Nc5cc(C(C)(C)C)nn5C5CCCC5)c(Cl)c4)c3cc2C(N)=O)CC1 [Compound 139]	9.87	3.44	1.14
COCCCOc1cc2nccc(Oc3ccc(NC(=O)Nc4cc(C(C)(C)C)n[nH]4)c(Cl)c3)c2cc1NC(C)=O [Compound 129, N-[4-{4-[3-(5-tert-butyl-2H-pyrazol-3-yl)-ureido]-3-chloro-phenoxy}-7-(3-methoxy-propoxy)-quinolin-6-yl]-acetamide]	4.88	4.78	0.34
COCCOc1cc2nccc(Oc3ccc(NC(=O)Nc4cc(C(C)(C)C)nn4C4CCN(C)CC4)cc3)c2cc1NC(C)=O [Compound 121]	0.61	19.5	0.5
CC(=O)Nc1cc2c(Oc3ccc(NC(=O)Nc4cc(C(C)(C)C)n[nH]4)c(Cl)c3)ccnc2cc1OCCCN1CCN(C)CC1 [Compound 130, N-{4-{4-[3-(5-tert-butyl-2H-pyrazol-3-yl)-ureido]-3-chloro-phenoxy}-7-[3-(4-methy-piperazin-1-yl)-propoxy]-quinolin-6-yl}-acetamide]	4.96	1.12	0.54
CC(=O)Nc1cc2c(Oc3ccc(NC(=O)Nc4cc(C(C)(C)C)n[nH]4)c(Cl)c3)ccnc2cc1OCCO [Compound 131]	14.7	19.5	11.6
COCCOc1cc2nccc(Oc3ccc(NC(=O)Nc4cc(C(C)(C)C)nn4C4CC4)cc3F)c2cc1NC(C)=O [Compound 134]	< 0.05	12.4	0.3
COCCOc1cc2nccc(Oc3ccc(NC(=O)Nc4cc(C(C)(C)C)nn4CCN4CCOCC4)c(Cl)c3)c2cc1NC(C)=O [Compound 123, N-[4-(4-{3-[5-tert-butyl-2-(2-morpholin-4-yl-ethyl)-2H-pyrazol-3-yl]-ureido}-3-chloro-phenoxy)-7-(2-methoxy-ethoxy)-quinolin-6-yl]-acetamide]	1.22	9.1	< 0.05
COCCOc1cc2nccc(Oc3ccc(NC(=O)Nc4cc(C(C)(C)C)nn4CCN4CCOCC4)cc3Cl)c2cc1NC(C)=O [Compound 137, N-[4-(4-{3-[5-tert-butyl-2-(2-morpholin-4-yl-ethyl)-2H-pyrazol-3-yl]-ureido}-2-chloro-phenoxy)-7-(2-methoxy-ethoxy)-quinolin-6-yl]-acetamide]	0.34	41.2	1.21
COCCOc1cc2nccc(Oc3ccc(NC(=O)Nc4cc(C(C)(C)C)nn4CCN4CCOCC4)cc3F)c2cc1NC(C)=O [Compound 136, N-[4-(4-{3-[5-tert-butyl-2-(2-morpholin-4-yl-ethyl)-2H-pyrazol-3-yl]-ureido}-2-fluoro-phenoxy)-7-(2-methoxy-ethoxy)-quinolin-6-yl]-acetamide]	0.05	39	0.4
COCCOc1cc2nccc(Oc3ccc(NC(=O)Nc4cc(C(C)(C)C)n[nH]4)c(F)c3)c2cc1NC(C)=O [Compound 128, N-[4-{4-[3-(5-tert-butyl-2H-pyrazol-3-yl)-ureido]-3-fluoro-phenoxy}-7-(2-methoxy-ethoxy)-quinolin-6-yl]-acetamide]	3.91	2.01	0.1
COCCOc1cc2nccc(Oc3ccc(NC(=O)Nc4cc(C(C)(C)C)nn4CCN4CCOCC4)cc3)c2cc1NC(C)=O [Compound 122]	0.6	69.4	0.27
COCCOc1cc2nccc(Oc3ccc(NC(=O)Nc4cc(C(C)(C)C)nn4C)cc3)c2cc1NC(C)=O [Compound 117, N-[4-{4-[3-(5-tert-butyl-2-methyl-2H-pyrazol-3-yl)-ureido]-phenoxy}-7-(2-methoxy-ethoxy)-quinolin-6-yl]-acetamide]	0.25	9.72	0.17
